One compound from patent publication US7026458B2, “High light fastness reactive red dyes” (DyStar Textilfarben GbmH & Co. Deutschland KG, priority 2003, dated 2006) can be followed below.

Each structure is given as a SMILES string.

This data set can be described thus: Solubility in 90 g/L salt solution at 50° C. It is filed as physicochemical. The method, then:
9% w/v solutions of Dyestuff (Ia) and of Dyestuff (5) were prepared at 50° C. and salt added to produce a 90 g/L salt solution. After 30 mins, 4.2% of Dyestuff (Ia) remained in solution whilst only 2.8% of Dyestuff (5) remained in solution. Thus Dyestuff (Ia) is 50% more soluble in 90 g/L salt at 50° C. than Dyestuff (5). This factor can be crucial as dyeings are carried out at high salt concentrations and better salt solubility can avoid problems with unlevel exhaustion onto the fibre from an exhaust dyebath.

With `Cc1ccc(Nc2nc(Cl)nc(Nc3ccc(/N=N/c4c(N)c(S(=O)(=O)O)cc5cc(S(=O)(=O)O)cc(O)c45)c(S(=O)(=O)O)c3)n2)c(Nc2nc(Cl)nc(Nc3ccc(/N=N/c4c(N)c(S(=O)(=O)O)cc5cc(S(=O)(=O)O)cc(O)c45)c(S(=O)(=O)O)c3)n2)c1` [Dyestuff (Ia)], the “dyestuff remained in solution” value (9% w/v solution prepared at 50° C., salt added to give 90 g/L salt solution, after 30 mins) is 4.2%. The “more soluble than Dyestuff (5)” value (in 90 g/L salt at 50° C., relative to Dyestuff (5)) came to 50%.
